The source of these data is PubChem BioAssay AID2060346 (Molecular Pharmacology Branch, DTP, NCI, 2025).

Molecules are shown by their SMILES. Where “and” joins values, the source holds several entries; their conditions need not be identical. Equal entries are not always repeated. Calls of active or inactive are those of the source. How the source made its calls: active means viability on the fitted dose curve at most 10% of control; inactive means the rest.

The subject of the test is CN0375-F725-PDC multi-cell spheroids, viability. Kind of test: Anticancer human tumor CN0375-F725-PDC patient-derived colon carcinoma cell line growth inhibition [TAK]. The following applies: for viability, T/C: stronger effect = lower value. The text has this: Combinatorial screen of targeted agents with TAK-243 and ipatasertib in multi-cell type tumor spheroids
A high-throughput screen of multi-cell type tumor spheroids was designed to identify active combinations of targeted small molecules and TAK-243 or ipatasertib. Complex spheroids include a stromal component modeled by human endothelial cells (HUVEC) and fibroblasts modeled by human mesenchymal stem cells (MSCs). The concentration ranges selected for each drug and investigational agent were based upon clinically achievable concentrations if the clinical Cmax of the agent was known.
Compounds. The drugs and investigational agents: TAK-243 (785004), ipatasertib (767898), everolimus (733504), selumetinib (741078), bortezomib (756655), trametinib (758246), ixazomib (758254), vemurafenib (761431), dabrafenib (764134), sapanisertib (764658), alpelisib (765974), and copanlisib (816437), were obtained from the National Cancer Institute (NCI) Developmental Therapeutics Program Chemical Repository. The FDA-approved anticancer drug set is available from the NCI Developmental Therapeutics Program. […] The stock solutions were prepared in dimethyl sulfoxide (DMSO, Sigma-Aldrich, St. Louis, MO, cat. D2650) at 800-fold the tested concentration and stored at -70 degrees C prior to their use. All drugs and investigational agents were tested over a range starting from a high concentration at or near the clinical Cmax and decreasing in half-log increments. If the clinical Cmax for an agent had not been determined, the highest concentration tested was 10 microM.
NCI60 Cell Culture. NCI60 cell lines were obtained from the NCI Developmental Therapeutics Program Tumor Repository. For each lot of cells, the Repository performed Applied Biosystems AmpFLSTR Identifiler testing with PCR amplification to confirm consistency with the published Identifier STR profile for each cell line. Cells were kept in continuous culture for no more than 20 passages. The optimal seeding densities for each of the cell lines at each time point assessed were determined prior to performing the concentration response studies. Briefly, the NCI60 human tumor lines were grown as monolayers in RPMI 1640 medium supplemented with 10% FBS and 2 mmol/L L-glutamine.
An additional 2 lines were from the NCI60 cell line panel including melanomas, MALME-3M and SK-MEL-2. Pooled donor human umbilical vein endothelial cells (HUVEC, Lonza, cat. CC-2519) and human mesenchymal stem cells (hMSC, Lonza, cat. PT-2501) were purchased from Lonza (Walkersville, MD).
PDMR cell lines were grown in complete medium (DC medium): Dulbecco's modified Eagle's medium (DMEM)/F12 supplemented with 5% fetal bovine serum (FBS), 2 mM L-glutamine, 100 U/mL penicillin and 100 µg/ml streptomycin, 0.4 µg/ml hydrocortisone, 10 ng/ml epidermal growth factor (EGF) recombinant human protein, 24 µg/mL adenine, and 0.1 mg/mL primocin. During culture from frozen stock vials, PDMR cells were cultured in the same medium containing 10 µM Y-27632 (see Table 3). The PDCs were cultured in complete DMEM/F12 media without 10 microM Y-27632 dihydrochloride for at least two passages prior to the screen. The pooled donor HUVEC and hMSC were cultured in endothelial cell growth medium 2 (PromoCell, Heidelberg, Germany, cat. C-22011) and mesenchymal stem cell growth medium 2 (PromoCell, cat. C-28009), respectively. For all experiments, HUVEC and hMSC were used at passages </=5.
For the pre-screen, cell seeding densities were determined from a titration spanning the range from 5,000 to 313 cells per well. The mct-spheroids including 60% malignant cells, 25% HUVEC and 15% MSC dispensed as a mixture into U-bottom Ultra-Low Attachment 384-well plates (Corning, NY)
High-throughput Drug Combination Screening.
Prior to their inoculation into 384-well plates, malignant cells, HUVEC, and hMSC were removed from T flasks using TrypLE express (Thermo Fisher Scientific, cat. 12605036) and harvested by centrifugation for 5 min at 233 x g. […]
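Wherever IC50 is given: spheroids exposed to drugs for seven days.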
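Wherever viability, T/C is given: spheroids exposed to drugs for seven days.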

On to `COC1CC2CCC(C)C(O)(O2)C(=O)C(=O)N2CCCCC2C(=O)OC(C(C)CC2CCC(OCCO)C(OC)C2)CC(=O)C(C)C=C(C)C(O)C(OC)C(=O)C(C)CC(C)C=CC=CC=C1C` (stereo not drawn), for which the viability, T/C reads like this: (compound 0.000316 µM) 108% and 127%; (compound 0.001 µM) 103% and 118%; (compound 0.00316 µM) 90.9% and 96.7%; (compound 0.01 µM) 88.1% and 93.2%; (compound 0.0316 µM) 84.9% and 77.9%; (compound 0.1 µM) 83.9% and 82.5%. Moreover, where the note is “curve of compound”, the IC50 is greater than 100 nM.
Regarding `CC(=O)Nc1cccc(-n2c(=O)n(C3CC3)c(=O)c3c(Nc4ccc(I)cc4F)n(C)c(=O)c(C)c32)c1`, the viability, T/C was 106% and 100% (compound 94.9 pM); 96.5% and 91.6% (compound 0.0003 µM); 78.1% and 77.9% (compound 0.000949 µM); 67.4% and 64.9% (compound 0.003 µM); 52.9% and 52.8% (compound 0.00949 µM); 35.6% and 38.6% (compound 0.03 µM). Further, for the setting “curve of compound”, the half-maximal inhibitory concentration (IC50) is 10.6 nM and 11.2 nM.
For the compound `Cn1cnc2c(F)c(Nc3ccc(Br)cc3Cl)c(C(=O)NOCCO)cc21`, the viability, T/C reads like this: (compound 0.00949 µM) 89.7% and 95.5%; (compound 0.03 µM) 79.8% and 82.5%; (compound 0.0949 µM) 64.8% and 61.1%; (compound 0.3 µM) 55.1% and 49.1%; (compound 0.949 µM) 40.8% and 41.4%; (compound 3 µM) 33.3% and 34.5%. Under “curve of compound”, the IC50 was 420 nM and 267 nM.
As for `CC(C)CC(NC(=O)C(Cc1ccccc1)NC(=O)c1cnccn1)B(O)O` (stereo not drawn) + CC(C)NCC(C(=O)N1CCN(c2ncnc3c2C(C)CC3O)CC1)c1ccc(Cl)cc1, the IC50 stood at 7.39 nM (curve of first compound, second compound 0.3 µM); 7.9 nM (curve of first compound, second compound 0.949 µM); 7.86 nM (curve of first compound, second compound 3 µM); 5.85 nM (curve of first compound, second compound 9.49 µM); 2.49 nM (curve of first compound, second compound 30 µM). In addition, the viability, T/C runs as follows: (second compound 0.3 µM, first compound 31.6 pM) 100%; (second compound 0.3 µM, first compound 0.0001 µM) 99%; (second compound 0.3 µM, first compound 0.000316 µM) 93.6%; (second compound 0.3 µM, first compound 0.001 µM) 99.5%; (second compound 0.3 µM, first compound 0.00316 µM) 92.1%; (second compound 0.3 µM, first compound 0.01 µM) 34.9%. The viability, T/C (second compound 0.949 µM, first compound 31.6 pM) was 99.6%; the viability, T/C (second compound 0.949 µM, first compound 0.0001 µM) was 101%; the viability, T/C (second compound 0.949 µM, first compound 0.001 µM) is 90.3%; the viability, T/C (second compound 0.949 µM, first compound 0.00316 µM) was 93%; the viability, T/C (second compound 0.949 µM, first compound 0.01 µM) is 38.8%; the viability, T/C (second compound 3 µM, first compound 31.6 pM) was 89.3%. In addition, the viability, T/C is 93% (second compound 3 µM, first compound 0.0001 µM); 91.8% (second compound 3 µM, first compound 0.000316 µM); 93.1% (second compound 3 µM, first compound 0.001 µM); 82.8% (second compound 3 µM, first compound 0.00316 µM); 41.2% (second compound 3 µM, first compound 0.01 µM); 85.2% (second compound 9.49 µM, first compound 31.6 pM). The viability, T/C (second compound 9.49 µM, first compound 0.0001 µM) was 95.3%; the viability, T/C (second compound 9.49 µM, first compound 0.000316 µM) was 87.2%; the viability, T/C (second compound 9.49 µM, first compound 0.001 µM) was 93.6%; the viability, T/C (second compound 9.49 µM, first compound 0.00316 µM) is 76.7%; the viability, T/C (second compound 9.49 µM, first compound 0.01 µM) is 26.6%; the viability, T/C (second compound 30 µM, first compound 31.6 pM) is 72.3%. The viability, T/C reads like this: (second compound 30 µM, first compound 0.0001 µM) 86.8%; (second compound 30 µM, first compound 0.000316 µM) 84.4%; (second compound 30 µM, first compound 0.001 µM) 76.6%; (second compound 30 µM, first compound 0.00316 µM) 42.9%; (second compound 30 µM, first compound 0.01 µM) 9.84%. Also, the result (second compound 0.949 µM, first compound 0.000316 µM) was inactive.
Consider `CC(C)(C)c1nc(-c2cccc(NS(=O)(=O)c3c(F)cccc3F)c2F)c(-c2ccnc(N)n2)s1`, for which the viability, T/C is, setting by setting: (compound 0.0316 µM) 126% and 115%; (compound 0.1 µM) 130% and 129%; (compound 0.316 µM) 126% and 133%; (compound 1 µM) 112% and 127%; (compound 3.16 µM) 104% and 119%; (compound 10 µM) 110% and 107%. In addition, the IC50 (curve of compound) was greater than 10000 nM.
